Assay results published in paper PMC11313193, “Which Constituents Determine the Antioxidant Activity and Cytotoxicity of Garlic? Role of Organosulfur Compounds and Phenolics” (International Journal of Molecular Sciences, 2024).

Assays:
[1] = test system: microsomal lipid peroxidation; design: method as in PMID 16822206; conditions: cited from earlier work
[2] = test system: U87MG human glioblastoma cells; design: method as in PMID 22552443; conditions: 24 h exposure, cited from earlier work
[3] = test system: gastric carcinoma AGS cells; design: method as in PMID 15911108; conditions: 24 h exposure, cited from earlier work
[4] = test system: breast cancer MCF-7 cells; design: method as in PMID 32286702; conditions: 24 h exposure; read-out: Concentration lowering viability of MCF-7 cells to 50%; cited from earlier work
[5] = test system: PEO1 ovarian cancer cells; test: Cytotoxicity (Neutral Red), PEO1 cells; type: cell-based, human; conditions: 24 h exposure
Description: (§1) The PEO1 cells, SKOV-3 cells, and MRC-5 cells were grown at 37 °C and 5% CO2 in RPMI + GlutaMAX medium, McCoy’s 5A medium, and the DMEM + GlutaMAX medium, respectively. The media were supplemented with 10% heat-inactivated fetal calf serum and penicillin/streptomycin. The cell viability was evaluated using the Trypan Blue exclusion test.
(§2) In the cytotoxicity experiments, cells were grown in wells of sterile 96-well plates. The seeding density was 1 × 10^4 for SKOV-3 and MRC-5 cells and 1.5 × 10^4 for PEO1 cells. The cells were allowed to grow in the incubator for 24 h. Then, the medium was removed and new medium with an examined compound was added. The stock solutions of the compounds studied diluted with the appropriate cell medium were filtered before the addition to the cells using 0.22 µm filters. No more than 0.02% of DMSO was present in the media, and it had no discernible impact on the treated cells. Cells not exposed to any compound served as a control. After another 24 h incubation, the medium was gently aspirated, and the wells were added with 2% sterile Neutral Red solution (100 µL). The plates were then incubated (37 °C, 5% CO2) for one hour. The Neutral Red solution was aspirated, and the wells were washed two times with warm (37 °C) PBS. Subsequently, 100 µL of a permeabilization mixture (water/ethanol/glacial acetic acid, 50/49/1, v/v/v) was introduced to each well. The plates were shaken at 700 rpm for 20 min and absorbance was read at a wavelength of 540 nm against 620 nm.

[6] = test system: MDA-MB-231 breast cancer cells; design: method as in PMID 34626309; conditions: 24 h exposure, cited from earlier work
[7] = test system: MCF-7 breast cancer cells; design: method as in PMID 34626309; conditions: 24 h exposure, cited from earlier work
[8] = ABTS^● decolorization assay; conditions: 30 min incubation at room temperature, absorbance at 734 nm
Description: A modification of the ABTS^● decolorization assay was employed. Briefly, various volumes of solutions of the studied compounds were introduced to wells of a 96-well microplate, each prefilled 200 μL of ABTS^● solution. […] The drop in absorbance after 30 min incubation at room temperature was read as a measure of the antioxidant activity.
(§3) All assays were standardized with respect to Trolox. The antioxidant activity was calculated in each case as a ratio of the slope of the dependence of absorbance change on the concentration of a studied compound to the slope of the dependence of absorbance change of standard samples concerning Trolox on the concentration of Trolox. Antioxidant activities were expressed in moles of Trolox equivalents (TE)/mol of a studied compound, as described previously.

U251 glioma cells = test system: U251 glioma cells; design: method as in PMID 29436625; conditions: 24 h exposure, cited from earlier work
[9] = test system: SGC7901 human gastric adenocarcinoma cells; design: method as in PMID 21042755; conditions: 120 μg/mL (i.e., ca. 0.74 mM), 24 h exposure; cited from earlier work
MRC-5 fibroblasts = test: Cytotoxicity (Neutral Red), MRC-5 fibroblasts; type: cell-based, human; conditions: 24 h exposure
Description: as §1, §2

[10] = design: method as in PMID 17312965; conditions: cited from earlier work
[11] = DPPH^● decolorization assay; conditions: 30 min at ambient temperature in the dark, absorbance at 517 nm
Description: The assay was performed as described in a previous article. Briefly, increasing volumes of solutions of the studied compounds were introduced to wells of a 96-well microplate, each with 200 μL of 0.3 mM DPPH^● solution in methanol. The reaction was allowed to proceed for 30 min at ambient temperature in the dark, and absorbance at 517 nm was read. The absorbance decrease was a measure of the antioxidant activity.
as §3

SKOV-3 cells [12] = test system: SKOV-3 cells; design: method as in PMID 25097657; conditions: 24 h exposure, cited from earlier work
[13] = test system: cervical squamous carcinoma SiHa cells; design: method as in PMID 30783417; conditions: 50 nM, 24 h exposure; cited from earlier work
[14] = test system: breast cancer HCC-70 cells; design: method as in PMID 32286702; conditions: 24 h exposure; read-out: Concentration lowering viability of HCC-70 cells to 50%; cited from earlier work
[15] = Ferric reducing antioxidant power (FRAP) assay; conditions: 30 min at ambient temperature, pH 3.6, absorbance at 593 nm
Description: The method proposed by Benzie and Strain [91] was employed with a slight modification. Briefly, increasing volumes of solutions of the studied compounds were added to wells of a 96-well microplate prefilled with 200 μL of the working solution composed of 0.3 M acetate buffer, pH 3.6 (10 volumes), 10 mM 2,4,6-tris(2-pyridyl)-s-triazine (TPTZ), in 40 mM HCl (1 volume) and 20 mM FeCl3 (1 volume), was prepared immediately before use. After 30 min incubation at ambient temperature and the absorbance of the Fe^2+-TPTZ complex was read at 593 nm.
as §3

[16] = test system: SKOV-3 ovarian cancer cells; test: Cytotoxicity (Neutral Red), SKOV-3 cells; type: cell-based, human; conditions: 24 h exposure
Description: as §1, §2

HO8910 xenograft tumors = test system: HO8910 xenograft tumors; design: method as in PMID 16675472; conditions: administered intragastrically; cited from earlier work
SKOV-3 xenograft tumors = test system: SKOV-3 xenograft tumors; design: method as in PMID 16675472; conditions: administered intragastrically; cited from earlier work
SKOV-3 cells [17] = test system: SKOV-3 cells; design: method as in PMID 16675472; conditions: cited from earlier work
[18] = in the concentration range studied

For `C=CCS[S+]([O-])CC=C` (stereo not drawn) [Allicin, S-(prop-2-en-1-yl)prop-2-ene-1-sulfinothioate], the “Termination of lipid peroxidation / prevention of induced microsomal lipid peroxidation” value [1] is given as “ineffective”, the IC50 ([2]; converted, read-out: Concentration reducing viability of U87MG glioblastoma cells to 50%) is given as 550 µM and the “Concentration reducing viability of U87MG glioblastoma cells to 50%” value [2] is given as “ca. 90 /mL μg”. The IC50 ([3]; converted from μg/mL, read-out: Concentration diminishing survival of AGS cells to ca. 50%) was about 62 µM, the “Concentration diminishing survival of AGS cells to ca. 50%” value [3] was 10 µg/mL and the IC50 [4] was about 15 µM. For the same compound, the IC50 ([5]; Homo sapiens, PEO1, Neutral Red, read-out: IC50 PEO1) was 282 µM, the “Effect on viability of PEO1 cells” value [5, 18] was “did not significantly lower the viability” and the IC50 ([6]; converted from μg/mL, read-out: Concentration lowering survival of MDA-MB-231 cells by 50%) was about 111 µM. For the same compound, the “Concentration lowering survival of MDA-MB-231 cells by 50%” value [6] was “about 18 μg/mL”, the IC50 ([7]; converted from μg/mL, read-out: Concentration lowering survival of MCF-7 cells by 50%) was about 43 µM and the “Concentration lowering survival of MCF-7 cells by 50%” value [7] was “about 7 μg/mL”. The “Antioxidant activity, ABTS^● Decolorization” value [8] was −0.038 ± 0.020 mol Trolox equivalents (TE)/mol compound, the IC50 (U251 glioma cells; converted from μg/mL, read-out: Concentration reducing viability of U251 glioma cells to 50%) was 247 µM and the “Concentration reducing viability of U251 glioma cells to 50%” value (U251 glioma cells) was “ca. 40 μg/mL”. For the same compound, the “Decrease in the survival of SGC7901 cells” value [9] was “ca. 25%”, the “Concentration at which viability of MRC-5 cells was lowered” value (MRC-5 fibroblasts; p < 0.05) was 100 µM and the IC50 (MRC-5 fibroblasts; Homo sapiens, MRC5, Neutral Red, read-out: IC50 MRC-5) was 120 µM. The “Reaction rate constant with cumene peroxyl radicals” value [10] was 2600 M⁻¹ s⁻¹, the “Antioxidant activity, DPPH^● Decolorization” value [11] was −0.023 ± 0.009 mol Trolox equivalents (TE)/mol compound and the IC50 (SKOV-3 cells [12]; converted from μg/mL, read-out: Concentration reducing viability of SKOV-3 cells to 50%) was 430 to 490 µM. For the same compound, the “Concentration reducing viability of SKOV-3 cells to 50%” value (SKOV-3 cells [12]) was 70 to 80 µg/mL, the “SiHa cell viability (decreased to)” value [13] was “ca. 60%” and the IC50 [14] was about 10 µM. The “Antioxidant activity, FRAP” value [15] was −0.0014 ± 0.0016 mol Trolox equivalents (TE)/mol compound, the IC50 ([16]; Homo sapiens, SK-OV-3, Neutral Red, read-out: IC50 SKOV-3) was 236 µM and the “Effect on viability of SKOV-3 cells” value [16, 18] was “did not significantly lower the viability”.

For `C=CCSSC[C@H](N)C(=O)O` [SAMC, S-allylmercaptocysteine], the “Development of xenograft tumors formed by HO8910 cells” value (HO8910 xenograft tumors) is listed as “inhibited”, the “Development of xenograft tumors formed by SKOV-3 cells” value (SKOV-3 xenograft tumors) is listed as “inhibited” and the “Migration of SKOV-3 cells and their invasiveness” value (SKOV-3 cells [17]) is listed as “inhibited”.
